According to US20260083704A1, “LXR MODULATORS WITH BICYCLIC CORE MOIETY FOR TREATING DYSLIPIDEMIAS” (OrsoBio, Inc., priority 2022, published 2026):
Where two headings read alike, the source gives them in different places.

Experiments:
[1] = Pharmacokinetics in mice after single oral dosing (blood/plasma and liver exposure); type: in vivo; conditions: for blood/plasma exposure (below LLOQ) / liver exposure (below LLOQ) / blood/plasma exposure / liver exposure / liver/blood ratio: 20 mg/kg single oral dose, time point 4 h; for blood/plasma exposure (below LLOQ) / liver exposure (below LLOQ): number is the LLOQ; for oral bioavailability: single oral dose
Protocol: The pharmacokinetics of the compounds was assessed in mice after single dosing and oral administrations. Blood/plasma and liver exposure was measured via LC-MS.
The study design was as follows: • Animals: C57/bl6/J (Janvier) males • Diet: standard rodent chow • Dose: 20 mg/kg • Animal handling: animals were withdrawn from food at least 12 h before administration • Design: single dose oral administration, n=3 animals per group • Sacrifice: at stated time point (4, 12 or 24 h) after administration • Bioanalytics: LC-MS of liver and blood/plasma samples

[2] = molecular target: T1, LXRα (Homo sapiens, UniProt Q13133); test: LXR Gal4 reporter transient transfection assay (mammalian two-hybrid, HEK293), LXRα; type: cell-based; parameters: expressed in transfected cells; host or cells: HEK293; conditions: full length (FL) LXRα, HEK293; read-out: FL-M2H Gal4α
T1 sequence (Q13133 1-447): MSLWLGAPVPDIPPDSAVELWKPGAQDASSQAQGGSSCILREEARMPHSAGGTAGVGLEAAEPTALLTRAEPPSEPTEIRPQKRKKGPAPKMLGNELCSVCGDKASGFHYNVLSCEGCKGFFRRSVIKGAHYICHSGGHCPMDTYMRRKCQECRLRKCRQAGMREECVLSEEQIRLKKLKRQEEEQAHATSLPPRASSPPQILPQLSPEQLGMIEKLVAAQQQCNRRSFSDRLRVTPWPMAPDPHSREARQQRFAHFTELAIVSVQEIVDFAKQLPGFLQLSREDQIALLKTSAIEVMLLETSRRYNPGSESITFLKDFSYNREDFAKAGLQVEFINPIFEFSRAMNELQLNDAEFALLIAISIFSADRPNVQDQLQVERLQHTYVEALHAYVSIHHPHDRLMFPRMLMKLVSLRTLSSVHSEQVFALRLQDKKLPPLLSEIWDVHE
Protocol: (§1) LXRα and LXRβ activity status was determined via detection of interaction with coactivator and corepressor proteins in mammalian two-hybrid experiments (M2H). For this, via transient transfection the full length (FL) proteins of LXRα (amino acids 1-447; NP005684; SEQ ID NO:1) or LXRβ-(amino acids 1-461; NP009052; SEQ ID NO:2) or the ligand-binding domains (LBD) of LXRα (amino acids 155-447 SEQ ID NO:3) or LXRβ (amino acids 156-461; SEQ ID NO:4) were expressed from pCMV-AD (Stratagene) as fusions to the transcriptional activation domain of NFkB. As cofactors, domains of either the steroid receptor coactivator 1 (SRC1; amino acids 552-887; SEQ ID NO:5) or of the corepressor NCoR (amino acids 1906-2312; NP006302; SEQ ID NO:6) were expressed as fusions to the DNA binding domain of the yeast transcription factor GAL4 (from pCMV-BD; Stratagene). Interaction was monitored via activation of a coexpressed Firefly Luciferase Reporter gene under control of a promoter containing repetitive GAL4 response elements (vector pFRLuc; Stratagene). Transfection efficiency was controlled via cotransfection of constitutively active pRL-CMV Renilla reniformis luciferase reporter (Promega). HEK293 cells were grown in minimum essential medium (MEM) with 2 mM L-glutamine and Earle's balanced salt solution supplemented with 8.3% fetal bovine serum, 0.1 mM non-essential amino acids, 1 mM sodium pyruvate, at 37° C. in 5% CO2. 3.5×10^4 cells/well were plated in 96-well cell culture plates in growth medium supplemented with 8.3% fetal bovine serum for 16-20 h to ˜90% confluency. For transfection, medium was taken off and LXR and cofactor expressing plasmids as well as the reporter plasmids are added in 30 μL OPTIMEM/well including polyethylene-imine (PEI) as vehicle. Typical amounts of plasmids transfected/well: pCMV-AD-LXR (5 ng), pCMV-BD-cofactor (5 ng), pFR-Luc (100 ng), pRL-CMV (0.5 ng). Compound stocks were prepared in DMSO, prediluted in MEM to a total volume of 120 μL, and added 4 h after addition of the transfection mixture (final vehicle concentration not exceeding 0.2%). Cells were incubated for additional 16 h, lysed for 10 min in 1×Passive Lysis Buffer (Promega) and Firefly and Renilla luciferase activities were measured sequentially in the same cell extract using buffers containing D-luciferine and coelenterazine, respectively. Measurements of luminescence were done in a BMG-luminometer.
(§2) The potencies of Compound 21/3 and its analog, Compound pre-6/3, against LXRα and LXRβ were evaluated in biochemical binding assays, cellular mammalian two-hybrid (M2H) interaction assays evaluating nuclear receptor co-repressor (NCOR) recruitment, and cellular reporter assays evaluating transcriptional activity (Table 5).

[3] = molecular target: T2, GST-LXRβ ligand-binding domain (Homo sapiens, UniProt P55055); test: TR-FRETβ activity assay (NCoA3 coactivator peptide recruitment); type: biochemical; conditions: 1 μM 24(S)-25-epoxycholesterol prestimulation
T2 construct: amino acids 156-461; NP009052; made in house; host or cells: E. coli
T2 sequence (P55055 156-460 limits assumed): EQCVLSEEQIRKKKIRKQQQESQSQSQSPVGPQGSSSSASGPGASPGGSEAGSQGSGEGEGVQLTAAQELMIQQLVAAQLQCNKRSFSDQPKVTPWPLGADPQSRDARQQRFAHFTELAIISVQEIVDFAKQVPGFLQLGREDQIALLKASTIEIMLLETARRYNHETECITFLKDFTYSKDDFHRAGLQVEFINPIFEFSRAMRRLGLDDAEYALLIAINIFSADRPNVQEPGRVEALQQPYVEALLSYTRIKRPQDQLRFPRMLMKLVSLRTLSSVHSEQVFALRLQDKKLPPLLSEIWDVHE
How it was run: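 E. coli-expressed GST-LXRβ LBD (aa 156-461, 76 nM) with biotinylated NCoA3 peptide (400 nM) in Tris/HCl pH 6.8 containing 1 μM 24(S)-25-epoxycholesterol agonist. Compounds tested at 50 μM down to 0.002 μM in triplicate. TR-FRET (Tb cryptate/XL665, ex 340, em 615/665 nm) read after 1 h at 4° C.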

[4] = molecular target: T3, LXRβ (Homo sapiens, UniProt P55055); test: LXR Gal4 reporter transient transfection assay (mammalian two-hybrid, HEK293), LXRβ; type: cell-based; parameters: LXRβ (amino acids 156-461); expressed in transfected cells; host or cells: HEK293; conditions: full length (FL) LXRβ, HEK293; read-out: FL-M2H Gal4β
T3 sequence (P55055 1-460): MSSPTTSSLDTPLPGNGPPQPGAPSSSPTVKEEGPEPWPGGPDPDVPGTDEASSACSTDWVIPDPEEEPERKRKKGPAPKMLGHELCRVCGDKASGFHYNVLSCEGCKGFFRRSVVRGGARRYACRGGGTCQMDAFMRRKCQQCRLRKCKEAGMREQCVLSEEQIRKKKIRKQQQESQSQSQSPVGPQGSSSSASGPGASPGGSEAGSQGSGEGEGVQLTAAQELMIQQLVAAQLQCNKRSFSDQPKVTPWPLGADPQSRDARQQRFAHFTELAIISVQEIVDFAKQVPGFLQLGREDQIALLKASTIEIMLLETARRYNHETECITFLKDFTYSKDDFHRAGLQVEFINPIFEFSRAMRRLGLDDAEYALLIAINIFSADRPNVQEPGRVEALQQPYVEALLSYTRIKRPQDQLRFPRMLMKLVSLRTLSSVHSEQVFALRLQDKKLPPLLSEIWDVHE
How it was run: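 HEK293 cells transiently co-transfected with full-length or LBD LXRα/LXRβ fused to NFkB activation domain, GAL4-DBD-fused SRC1 or NCoR cofactor domain, GAL4-responsive firefly luciferase reporter and Renilla control. Compound added 4 h post-transfection (≤0.2% DMSO), incubated 16 h; firefly and Renilla luminescence read sequentially.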

[5] = molecular target: T4, LXRβ (Homo sapiens, UniProt P55055); test: as above; type: cell-based; conditions: ligand-binding domain (LBD) of LXRβ, HEK293; read-out: LBD-M2H Gal4β
T4 construct: LXRβ (amino acids 156-461); expressed in transfected cells; host or cells: HEK293
T4 sequence (P55055 156-460): T2 sequence (P55055 156-460 limits assumed)
Protocol: as §1, §2

Structure (SMILES) | EC50 [2] [nM] | EC50 [3] [nM] | EC50 [4] [nM] | EC50 [5] [nM] | further results
CCOC(=O)c1ccc(CN(Cc2ccc(-c3cccc(S(C)(=O)=O)c3)cc2)S(=O)(=O)c2c(C)cc(C)cc2C)o1 [SR9238, reference compound] |  |  |  |  | blood/plasma exposure (below LLOQ) [1]: below LLOQ; liver exposure (below LLOQ) [1]: below LLOQ; oral bioavailability [1]: not orally bioavailable
Cc1ccc(S(=O)(=O)n2c(-c3cccc(-c4cncc(S(=O)(=O)CC(=O)O)c4)c3)c(-c3ccsc3C#N)c3ccccc32)cc1 [Compound 5] | 1000 to 10000 | 100 to 1000 | 1000 to 10000 |  | 
Cc1ccc(S(=O)(=O)n2c(-c3cccc(-c4ccc(C(=O)NCCS(=O)(=O)O)cc4Cl)c3)c(-c3ccsc3C#N)c3cc(F)ccc32)cc1 [Compound 10] | < 100 | 100 to 1000 | 100 to 1000 |  | 
Cc1ccc(S(=O)(=O)n2c(-c3cccc(-c4ccc(C(=O)NO)cc4)c3)c(-c3ccsc3C#N)c3cc(F)ccc32)cc1 [Compound 6] | < 100 | 100 to 1000 | < 100 |  | 
Cc1ccc(S(=O)(=O)n2c(-c3cccc(-c4ccc(-c5nnn[nH]5)cc4Cl)c3)c(-c3ccsc3C#N)c3cc(F)ccc32)cc1 [Compound 37] | < 100 | 100 to 1000 | < 100 |  | 
N#Cc1sccc1-c1c(-c2cccc(N3CC(C(=O)O)C3)c2)n(S(=O)(=O)c2ccc(Cl)cc2)c2ccccc12 [30/7] |  | 100 to 1000 |  | < 100 | blood/plasma exposure [1]: D (<100 nM); liver exposure [1]: B (300 nM to ≤1 μM); liver/blood ratio [1]: D (>30)
Cc1ccc(S(=O)(=O)n2c(-c3cccc(N4CC(C(=O)O)C4)c3)c(-c3ccsc3C#N)c3cc(F)c(F)cc32)cc1 [3/42] |  | 1000 to 10000 | < 100 | < 100 | 
N#Cc1cccc(C#N)c1-c1c(-c2cccc(-c3ccc(C(=O)O)cc3Cl)c2)n(S(=O)(=O)c2ccc(C(F)F)cc2)c2cc(F)c(O)cc12 [Compound 44] | < 100 | 100 to 1000 | < 100 |  | 
Cc1ccc(S(=O)(=O)n2c(-c3cccc(N4CC(C(=O)O)C4)c3)c(-c3ccsc3C#N)c3cc(Cl)ccc32)cc1 [3/44] |  | 1000 to 10000 | < 100 | < 100 | 
Cc1cc(C)c(S(=O)(=O)N(Cc2ccc(-c3cccc(S(C)(=O)=O)c3)cc2)Cc2ccc(C(F)(F)F)o2)c(C)c1 [GSK2033, reference compound] |  |  |  |  | blood/plasma exposure (below LLOQ) [1]: (14.4 ng/mL); liver exposure (below LLOQ) [1]: (9.6 ng/mL); oral bioavailability [1]: not orally bioavailable
Cc1ccc(S(=O)(=O)n2c(-c3cccc(-c4ccc(C(=O)O)cc4Cl)c3)c(-c3ccccc3C#N)c3cc(F)ccc32)cc1 [Compound 11] | < 100 | < 100 | < 100 |  | 
Cc1ccc(S(=O)(=O)n2c(-c3cccc(N4CC(C(=O)O)C4)c3)c(-c3ccsc3C#N)c3cc(F)c(Cl)cc32)cc1 [3/43] |  | 1000 to 10000 | < 100 | 100 to 1000 | 
Cc1ccc(S(=O)(=O)n2c(-c3cccc(-c4cnc(C(=O)O)cc4C)c3)c(-c3ccsc3C#N)c3cc(F)ccc32)cc1 [Compound 36] | 100 to 1000 | 1000 to 10000 | 100 to 1000 |  | 
Cc1ccc(S(=O)(=O)n2c(-c3cccc(-c4cc(C)c(C(=O)O)cc4Cl)c3)c(-c3ccsc3C#N)c3cc(F)ccc32)cc1 [Compound 12] | < 100 | 100 to 1000 | < 100 |  | 
Cc1cccc(C#N)c1-c1c(-c2cccc(-c3ccc(C(=O)O)cc3Cl)c2)n(S(=O)(=O)c2ccc(C(F)F)cc2)c2ccc(F)cc12 [41/2, 2-chloro-3′-(3-(2-cyano-6-methylphenyl)-1-((4-(difluoro-methyl)phenyl)sulfonyl)-5-fluoro-1H-indol-2-yl)-[1,1′-biphenyl]-4-carboxylic acid] | < 100 | < 100 |  |  | 
Cc1ccc(S(=O)(=O)n2c(-c3cccc(-c4ccc(C(N)=O)cc4)c3)c(-c3ccsc3C#N)c3cc(F)ccc32)cc1 [6/2] | < 100 | 100 to 1000 | < 100 |  | 
N#Cc1sccc1-c1c(-c2cccc(C3CC3C(=O)O)c2)n(S(=O)(=O)c2ccc(Cl)cc2)c2ccc(F)cc12 (stereo not drawn) [3/24] |  |  | < 100 | < 100 | blood/plasma exposure [1]: D (<100 nM); liver exposure [1]: C (1 μM to ≤3 μM); liver/blood ratio [1]: D (>30)
Cc1ccc(S(=O)(=O)n2c(-c3cccc(-c4ccc(CN(C)C)cc4Cl)c3)c(-c3ccsc3C#N)c3cc(F)ccc32)cc1 [Compound 2] | < 100 | 100 to 1000 | < 100 |  | 
Cc1ccc(S(=O)(=O)n2c(-c3cccc(N4CC(C(=O)O)C4)c3)c(-c3ccsc3C#N)c3cc(C)ccc32)cc1 [3/46] |  | 100 to 1000 | < 100 | < 100 | 
